In article PMC5218480 (PLoS ONE, 2017):

Tested on: MV-4-11 cells
Assay: Gene expression microarray analysis (Affymetrix PrimeView) and GSEA
Assay type: cell-based, human
Set-up: RFU PODN (11730768_x_at) / Fold change /veh PODN (11730768_x_at) / RFU LINC00158 (11744669_a_at) / Fold change /veh LINC00158 (11744669_a_at) / RFU DUSP10 (11751237_a_at) / Fold change /veh DUSP10 (11751237_a_at) / RFU ID3 (11757404_x_at) / Fold change /veh ID3 (11757404_x_at) / RFU PLEKHG5 (11737974_s_at) / Fold change /veh PLEKHG5 (11737974_s_at) / RFU LRRC4B (11730491_at) / Fold change /veh LRRC4B (11730491_at) / RFU GIMAP4 (11747438_a_at) / Fold change /veh GIMAP4 (11747438_a_at) / RFU KRT8 (11758183_x_at) / Fold change /veh KRT8 (11758183_x_at) / RFU CNN1 (11734310_a_at) / Fold change /veh CNN1 (11734310_a_at) / RFU VPS37D (11726825_at) / Fold change /veh VPS37D (11726825_at) / RFU C10orf10 (11716522_x_at) / Fold change /veh C10orf10 (11716522_x_at) / RFU KIR2DL2 /// KIR2DL4 /// KIR2DL5A /// KIR2DL5B /// KIR2DS1 /// KIR2DS2 /// KIR2DS3 /// KIR2DS4 /// KIR3DL3 /// KIR3DL3 /// KIR3DS1 (11738374_at) / Fold change /veh KIR2DL2 /// KIR2DL4 /// KIR2DL5A /// KIR2DL5B /// KIR2DS1 /// KIR2DS2 /// KIR2DS3 /// KIR2DS4 /// KIR3DL3 /// KIR3DL3 /// KIR3DS1 (11738374_at) / RFU C1QL1 (11718748_at) / Fold change /veh C1QL1 (11718748_at) / RFU TMPRSS4 (11747572_a_at) / Fold change /veh TMPRSS4 (11747572_a_at) / RFU HAMP (11756126_x_at) / Fold change /veh HAMP (11756126_x_at) / RFU RNFT2 (11725882_a_at) / Fold change /veh RNFT2 (11725882_a_at) / RFU NR4A2 (11747474_a_at) / Fold change /veh NR4A2 (11747474_a_at) / RFU ABCC12 (11746883_a_at) / Fold change /veh ABCC12 (11746883_a_at) / RFU TMEM136 (11760407_x_at) / Fold change /veh TMEM136 (11760407_x_at) / RFU CLDN22 /// WWC2 (11732394_at) / Fold change /veh CLDN22 /// WWC2 (11732394_at) / RFU HLA-DPB1 (11760878_x_at) / Fold change /veh HLA-DPB1 (11760878_x_at) / RFU SPINT1 (11716480_a_at) / Fold change /veh SPINT1 (11716480_a_at) / RFU GAP43 (11754022_s_at) / Fold change /veh GAP43 (11754022_s_at) / RFU A4GNT (11735810_at) / Fold change /veh A4GNT (11735810_at) / RFU PRB3 (11715151_x_at) / Fold change /veh PRB3 (11715151_x_at) / RFU TUBB4B (11761932_at) / Fold change /veh TUBB4B (11761932_at) / RFU CAPN14 (11732068_a_at) / Fold change /veh CAPN14 (11732068_a_at) / RFU TMCC2 (11721928_a_at) / Fold change /veh TMCC2 (11721928_a_at) / RFU IRGQ (11745062_a_at) / Fold change /veh IRGQ (11745062_a_at) / RFU FAM174B (11720279_a_at) / Fold change /veh FAM174B (11720279_a_at) / RFU TMPRSS4 (11748680_a_at) / Fold change /veh TMPRSS4 (11748680_a_at) / RFU FAM212B (11763350_a_at) / Fold change /veh FAM212B (11763350_a_at) / RFU PLEKHG5 (11743358_a_at) / Fold change /veh PLEKHG5 (11743358_a_at) / RFU ZSCAN30 (11745921_a_at) / Fold change /veh ZSCAN30 (11745921_a_at) / RFU CMKLR1 (11741424_a_at) / Fold change /veh CMKLR1 (11741424_a_at) / RFU LOC101060620 /// MAPK8IP1 (11723275_at) / Fold change /veh LOC101060620 /// MAPK8IP1 (11723275_at) / RFU SPTSSB (11747773_x_at) / Fold change /veh SPTSSB (11747773_x_at) / RFU PRSS12 (11739890_at) / Fold change /veh PRSS12 (11739890_at) / RFU BIN1 (11741810_x_at) / Fold change /veh BIN1 (11741810_x_at) / RFU WNT11 (11732464_a_at) / Fold change /veh WNT11 (11732464_a_at) / RFU C10orf10 (11716521_a_at) / Fold change /veh C10orf10 (11716521_a_at) / RFU C5orf56 (11738089_at) / Fold change /veh C5orf56 (11738089_at) / RFU CYB561 (11721691_x_at) / Fold change /veh CYB561 (11721691_x_at) / RFU ANKRD19P (11752326_a_at) / Fold change /veh ANKRD19P (11752326_a_at) / RFU OR2T12 /// OR2T33 /// OR2T8 (11738714_s_at) / Fold change /veh OR2T12 /// OR2T33 /// OR2T8 (11738714_s_at) / RFU VCAN (11748164_a_at) / Fold change /veh VCAN (11748164_a_at) / RFU JSRP1 (11732532_at) / Fold change /veh JSRP1 (11732532_at) / RFU KRTAP10-11 (11738290_x_at) / Fold change /veh KRTAP10-11 (11738290_x_at) / RFU MYO3A (11730013_a_at) / Fold change /veh MYO3A (11730013_a_at) / RFU EBF3 (11725865_a_at) / Fold change /veh EBF3 (11725865_a_at) / RFU CAMK2N1 (11719241_x_at) / Fold change /veh CAMK2N1 (11719241_x_at) / RFU C5orf56 (11738088_a_at) / Fold change /veh C5orf56 (11738088_a_at) / RFU OLFML3 (11715873_a_at) / Fold change /veh OLFML3 (11715873_a_at) / RFU LOC100653217 /// NTM (11731650_a_at) / Fold change /veh LOC100653217 /// NTM (11731650_a_at) / RFU MAPK11 (11762145_a_at) / Fold change /veh MAPK11 (11762145_a_at) / RFU FIZ1 (11724087_x_at) / Fold change /veh FIZ1 (11724087_x_at) / RFU OASL (11726364_x_at) / Fold change /veh OASL (11726364_x_at) / RFU SOX15 (11748057_x_at) / Fold change /veh SOX15 (11748057_x_at) / RFU CD79A (11719716_a_at) / Fold change /veh CD79A (11719716_a_at) / RFU HIST1H1D (11736915_at) / Fold change /veh HIST1H1D (11736915_at) / RFU CASKIN2 (11723855_a_at) / Fold change /veh CASKIN2 (11723855_a_at) / RFU LOC730098 (11760151_x_at) / Fold change /veh LOC730098 (11760151_x_at) / RFU OR4N2 (11742367_at) / Fold change /veh OR4N2 (11742367_at) / RFU PRRT2 (11749266_a_at) / Fold change /veh PRRT2 (11749266_a_at) / RFU SNX32 (11753110_a_at) / Fold change /veh SNX32 (11753110_a_at) / RFU CDHR5 (11726645_a_at) / Fold change /veh CDHR5 (11726645_a_at) / RFU RCAN1 (11760418_a_at) / Fold change /veh RCAN1 (11760418_a_at) / RFU FAM167A (11723789_a_at) / Fold change /veh FAM167A (11723789_a_at) / RFU FAM26E (11764081_at) / Fold change /veh FAM26E (11764081_at) / RFU ISYNA1 (11749810_s_at) / Fold change /veh ISYNA1 (11749810_s_at) / RFU ACY1 (11761880_at) / Fold change /veh ACY1 (11761880_at) / RFU 11764098_at / Fold change /veh 11764098_at / RFU SAMD14 (11745864_x_at) / Fold change /veh SAMD14 (11745864_x_at) / RFU NPB (11741838_a_at) / Fold change /veh NPB (11741838_a_at) / RFU TMPRSS6 (11731388_a_at) / Fold change /veh TMPRSS6 (11731388_a_at) / RFU KRTAP10-2 (11738614_at) / Fold change /veh KRTAP10-2 (11738614_at) / RFU ARHGAP8 /// PRR5-ARHGAP8 (11727945_x_at) / Fold change /veh ARHGAP8 /// PRR5-ARHGAP8 (11727945_x_at) / RFU KRTAP5-7 /// NADSYN1 (11734609_at) / Fold change /veh KRTAP5-7 /// NADSYN1 (11734609_at) / RFU RASL12 (11751679_a_at) / Fold change /veh RASL12 (11751679_a_at) / RFU CDKN2B (11736163_a_at) / Fold change /veh CDKN2B (11736163_a_at) / RFU PRF1 (11729649_at) / Fold change /veh PRF1 (11729649_at) / RFU, ZNF638 /// ZNF638-IT1 / Fold change vs veh, ZNF638 /// ZNF638-IT1 / RFU, PANK3 / Fold change vs veh, PANK3 / RFU, SH3YL1 / Fold change vs veh, SH3YL1 / RFU, ZEB2 / Fold change vs veh, ZEB2 / RFU, NRIP1 / Fold change vs veh, NRIP1 / RFU, PTTG1IP / Fold change vs veh, PTTG1IP / RFU, CAPN2 / Fold change vs veh, CAPN2 / RFU, MED14 / Fold change vs veh, MED14 / RFU, SNORA58 / Fold change vs veh, SNORA58 / RFU, C1orf63 / Fold change vs veh, C1orf63 / RFU, LRRFIP1 / Fold change vs veh, LRRFIP1 / RFU, NDUFAF7 / Fold change vs veh, NDUFAF7 / RFU, SLC12A2 / Fold change vs veh, SLC12A2 / RFU, IBTK / Fold change vs veh, IBTK / RFU, ESF1 / Fold change vs veh, ESF1 / Fold change vs veh, TMEM50B / RFU, TAOK1 / Fold change vs veh, TAOK1 / RFU, ACBD3 / Fold change vs veh, ACBD3 / RFU, TMA16 / Fold change vs veh, TMA16 / RFU, RWDD3 / Fold change vs veh, RWDD3 / RFU, BCAT1 / Fold change vs veh, BCAT1 / RFU, EDEM3 / Fold change vs veh, EDEM3 / RFU, TMEM33 / Fold change vs veh, TMEM33 / RFU, WDR75 / Fold change vs veh, WDR75 / RFU, AHCTF1 / Fold change vs veh, AHCTF1 / RFU, TFRC / Fold change vs veh, TFRC / RFU, ZDHHC17 / Fold change vs veh, ZDHHC17 / RFU, NOM1 / Fold change vs veh, NOM1 / RFU, ARL8B / Fold change vs veh, ARL8B / RFU, ZBTB11 / Fold change vs veh, ZBTB11 / RFU, TAMM41 / Fold change vs veh, TAMM41 / RFU, KIAA1704 /// LOC100996395 / Fold change vs veh, KIAA1704 /// LOC100996395 / RFU, ING1 / Fold change vs veh, ING1 / RFU, TRMT61B / Fold change vs veh, TRMT61B / RFU, FUBP3 / Fold change vs veh, FUBP3 / RFU, TP53 / Fold change vs veh, TP53 / RFU, TNKS2 / Fold change vs veh, TNKS2 / RFU, ZFP14 / Fold change vs veh, ZFP14 / RFU, ACTR2 / Fold change vs veh, ACTR2 / RFU, PPP3R1 / Fold change vs veh, PPP3R1 / RFU, PIK3R1 / Fold change vs veh, PIK3R1 / RFU, HNRNPA1 / Fold change vs veh, HNRNPA1 / RFU, RNF170 / Fold change vs veh, RNF170 / RFU, ZNF28 / Fold change vs veh, ZNF28 / RFU, RNGTT / Fold change vs veh, RNGTT / RFU, OGT / Fold change vs veh, OGT / RFU, BRD1 / Fold change vs veh, BRD1 / RFU, MARS / Fold change vs veh, MARS / RFU, ZNF655 / Fold change vs veh, ZNF655 / RFU, FAHD1 / Fold change vs veh, FAHD1 / RFU, BDP1 / Fold change vs veh, BDP1 / RFU, LRRCC1 / Fold change vs veh, LRRCC1 / RFU, ARID1A / Fold change vs veh, ARID1A / RFU, ZNF146 / Fold change vs veh, ZNF146 / RFU, ZNF330 / Fold change vs veh, ZNF330 / RFU, GPN3 / Fold change vs veh, GPN3 / RFU, C9orf123 / Fold change vs veh, C9orf123 / RFU, N4BP2L2 / Fold change vs veh, N4BP2L2 / RFU, ARFIP1 / Fold change vs veh, ARFIP1 / RFU, FAM179B / Fold change vs veh, FAM179B / RFU, BCL10 / Fold change vs veh, BCL10 / RFU, UHRF1BP1L / Fold change vs veh, UHRF1BP1L / RFU, BET1 / Fold change vs veh, BET1 / RFU, CNOT2 / Fold change vs veh, CNOT2 / RFU, ZNF268 / Fold change vs veh, ZNF268 / Fold change vs veh, ZNF507 / RFU, DGCR2 / Fold change vs veh, DGCR2 / RFU, WDSUB1 / Fold change vs veh, WDSUB1 / Fold change vs veh, HSP90B1 /// MIR3652 / RFU, ADSS / Fold change vs veh, ADSS / RFU, GK / Fold change vs veh, GK / RFU, ZNF148 / Fold change vs veh, ZNF148 / RFU, TAF9 / Fold change vs veh, TAF9 / RFU, SLC1A5 / Fold change vs veh, SLC1A5 / RFU, SLMO2 / Fold change vs veh, SLMO2 / RFU, ABCC4 / Fold change vs veh, ABCC4 / RFU, LOC101060439 /// RAP1B / Fold change vs veh, LOC101060439 /// RAP1B / RFU, RFX7 / Fold change vs veh, RFX7 / RFU, GTPBP10 / Fold change vs veh, GTPBP10 / RFU, CNEP1R1 / Fold change vs veh, CNEP1R1 / RFU, BIVM-ERCC5 /// ERCC5 / Fold change vs veh, BIVM-ERCC5 /// ERCC5 / RFU, ILF3 / Fold change vs veh, ILF3 / RFU 11762660_at / Fold change /veh 11762660_at / RFU VCAN (11757783_s_at) / Fold change /veh VCAN (11757783_s_at) / RFU DDX43 (11728927_at) / Fold change /veh DDX43 (11728927_at) / RFU KRT8 (11758188_x_at) / Fold change /veh KRT8 (11758188_x_at) / RFU NKD1 (11759106_at) / Fold change /veh NKD1 (11759106_at) / RFU SRD5A1 (11742802_a_at) / Fold change /veh SRD5A1 (11742802_a_at) / RFU TPSAB1 /// TPSB2 (11721975_s_at) / Fold change /veh TPSAB1 /// TPSB2 (11721975_s_at) / RFU GSTM3 (11746129_a_at) / Fold change /veh GSTM3 (11746129_a_at) / RFU IL23R (11737362_x_at) / Fold change /veh IL23R (11737362_x_at) / RFU TMEM51 (11727254_a_at) / Fold change /veh TMEM51 (11727254_a_at) / RFU PIWIL2 (11732686_x_at) / Fold change /veh PIWIL2 (11732686_x_at) / RFU ORM1 (11744905_x_at) / Fold change /veh ORM1 (11744905_x_at) / RFU CCDC152 (11743942_at) / Fold change /veh CCDC152 (11743942_at) / RFU ECM1 (11717891_a_at) / Fold change /veh ECM1 (11717891_a_at) / RFU IL23R (11748794_a_at) / Fold change /veh IL23R (11748794_a_at) / RFU TNFAIP8L3 (11732012_x_at) / Fold change /veh TNFAIP8L3 (11732012_x_at) / RFU MBOAT4 (11741988_at) / Fold change /veh MBOAT4 (11741988_at) / RFU 11764193_at / Fold change /veh 11764193_at / RFU TMEM53 (11763286_at) / Fold change /veh TMEM53 (11763286_at) / RFU MAGEB2 (11727129_at) / Fold change /veh MAGEB2 (11727129_at) / RFU TMEM200A (11744735_a_at) / Fold change /veh TMEM200A (11744735_a_at) / RFU CCDC152 (11751479_a_at) / Fold change /veh CCDC152 (11751479_a_at) / RFU FAM211A (11726209_a_at) / Fold change /veh FAM211A (11726209_a_at) / RFU RGS16 (11746705_a_at) / Fold change /veh RGS16 (11746705_a_at) / RFU VCAN (11755009_s_at) / Fold change /veh VCAN (11755009_s_at) / RFU RHOB (11743442_s_at) / Fold change /veh RHOB (11743442_s_at) / RFU RGS16 (11720943_a_at) / Fold change /veh RGS16 (11720943_a_at) / RFU RGS16 (11720944_at) / Fold change /veh RGS16 (11720944_at) / RFU, VPS4B / Fold change vs veh, VPS4B / RFU, CREB1 / Fold change vs veh, CREB1 / RFU, DNAJC13 / Fold change vs veh, DNAJC13 / RFU, GNAQ / Fold change vs veh, GNAQ / RFU, CDK5R1 / Fold change vs veh, CDK5R1 / RFU, ZRANB3 / Fold change vs veh, ZRANB3 / RFU, CUL4A / Fold change vs veh, CUL4A / RFU, CCNY / Fold change vs veh, CCNY / RFU, UFL1 / Fold change vs veh, UFL1 / RFU, COG3 / Fold change vs veh, COG3 / RFU, DIAPH2 / Fold change vs veh, DIAPH2 / RFU, SKA2 / Fold change vs veh, SKA2 / RFU, AFF3 / Fold change vs veh, AFF3 / RFU, LMF1 / Fold change vs veh, LMF1 / RFU, IPO11 / Fold change vs veh, IPO11 / RFU, DFFB / Fold change vs veh, DFFB / RFU, FOXP1 / Fold change vs veh, FOXP1 / RFU, CARD8 / Fold change vs veh, CARD8 / RFU, STRN3 / Fold change vs veh, STRN3 / RFU, ADK / Fold change vs veh, ADK / RFU, RASSF2 / Fold change vs veh, RASSF2 / RFU, WIPF1 / Fold change vs veh, WIPF1 / RFU, LARP1B / Fold change vs veh, LARP1B / RFU, RASA1 / Fold change vs veh, RASA1 / RFU, RB1 / Fold change vs veh, RB1 / RFU, PPFIA1 / Fold change vs veh, PPFIA1 / RFU, MAT2A / Fold change vs veh, MAT2A / RFU, CCT5 / Fold change vs veh, CCT5 / RFU, WDR92 / Fold change vs veh, WDR92 / RFU, CUX1 / Fold change vs veh, CUX1 / RFU, TTC7A / Fold change vs veh, TTC7A / RFU, TMEM135 / Fold change vs veh, TMEM135 / RFU, DEPTOR / Fold change vs veh, DEPTOR / RFU, CPM / Fold change vs veh, CPM / RFU, DNAJB6 / Fold change vs veh, DNAJB6 / RFU, CACNA2D3 / Fold change vs veh, CACNA2D3 / RFU, DTX4 / Fold change vs veh, DTX4 / RFU, TFCP2 / Fold change vs veh, TFCP2 / RFU, GMCL1 /// GMCL1P1 / Fold change vs veh, GMCL1 /// GMCL1P1 / RFU, AEBP2 / Fold change vs veh, AEBP2 / RFU, SNHG1 /// SNORD22 /// SNORD25 /// SNORD26 /// SNORD27 /// SNORD28 /// SNORD29 /// SNORD31 / Fold change vs veh, SNHG1 /// SNORD22 /// SNORD25 /// SNORD26 /// SNORD27 /// SNORD28 /// SNORD29 /// SNORD31 / Fold change (Aza/veh), C12orf56 (ProbeSet 11735607_a_at) / Fold change (ACY-1035/veh), C12orf56 (ProbeSet 11735607_a_at) / Fold change (Aza/veh), FGFR1OP (ProbeSet 11751329_s_at) / Fold change (ACY-1035/veh), FGFR1OP (ProbeSet 11751329_s_at) / Fold change (Aza/veh), VPS36 (ProbeSet 11739960_a_at) / Fold change (ACY-1035/veh), VPS36 (ProbeSet 11739960_a_at) / RFU SYPL1 (11715823_x_at) / Fold change /veh SYPL1 (11715823_x_at) / RFU IGFBP7 (11715501_s_at) / Fold change /veh IGFBP7 (11715501_s_at) / RFU REEP3 (11722064_at) / Fold change /veh REEP3 (11722064_at) / RFU IGLL1 (11728026_x_at) / Fold change /veh IGLL1 (11728026_x_at): dose or concentration left out as unconfirmed
Conditions: ProbeSet 11747889_x_at; LIST B

SMILES: Nc1ccc(-c2cccs2)cc1NC(=O)c1ccc2c(c1)cc(C1CC1)n2CCN1CCOCC1 [ACY-1035]
- Fold change vs veh, SH3YL1: 0.99
